Assay: xn = mol fraction of the nth substance listed
Conditions: 101 kPa

CC[n+]1ccn(C)c1.O=S(=O)([O-])C(F)(F)F + CC1COC(=O)O1
viscosity [mPa·s]
Conditions	x1 = 0.0999	x1 = 0.1999	x1 = 0.3005	x1 = 0.3998	x1 = 0.5001	x1 = 0.601	x1 = 0.6987	x1 = 0.8004	x1 = 0.8998	x1 = 1
288.15 K	6.25	8.7	–	–	–	24.4	30.7	39.1	46.9	59.2
293.15 K	–	7.33	9.18	12.2	15.69	20.5	25.6	–	38.8	48.6
298.15 K	4.53	6.2	7.76	10.37	13.37	17.6	21.7	–	–	–
303.15 K	–	5.31	6.65	–	11.43	15.01	–	23.1	27.6	–
308.15 K	3.4	4.57	5.77	7.65	–	12.99	16.02	19.9	23.6	29
313.15 K	3.03	4.01	5.07	6.67	8.69	11.33	13.95	17.2	–	–
318.15 K	2.7	–	–	–	–	9.92	12.22	15.08	–	21.5
323.15 K	2.42	3.13	3.94	5.12	6.8	8.79	–	13.15	–	18.6
328.15 K	2.17	–	–	–	–	–	9.52	11.61	13.62	16.5
333.15 K	2.01	2.52	–	4.07	5.53	6.99	–	–	12.12	14.61
338.15 K	1.84	2.28	2.83	3.65	4.99	–	7.59	–	10.74	13.02
343.15 K	–	2.14	2.6	–	4.51	5.75	6.92	8.33	9.66	11.52
348.15 K	1.611	1.97	2.41	3.14	4.14	5.26	6.33	7.61	8.9	10.29
353.15 K	1.57	1.89	–	2.94	3.9	4.9	5.92	7.17	–	–

CC1COC(=O)O1 (stereo not given) + CC[n+]1ccn(C)c1.O=S(=O)([O-])C(F)(F)F
x2 = 0
Conditions	viscosity [mPa·s]
288.15 K	3.53
298.15 K	2.5
303.15 K	2.2
308.15 K	1.97
313.15 K	1.79
318.15 K	1.65
323.15 K	1.538
328.15 K	1.451
333.15 K	1.373
338.15 K	1.307
348.15 K	1.201
353.15 K	1.162

Source: a compilation of properties of binary mixtures (doi:10.1007/s10953-019-00842-w)
